Legend:
[1] = FIH study, all parts combined: plasma PK; format: in vivo, human; conditions: all blood samples of subjects that received IMB-1018972
Excerpt: The study started with the SAD part.

healthy subjects [2] = test: FIH study, MAD part: safety and tolerability; format: in vivo, human
Method: Subjects received multiple oral doses of an IR formulation of IMB-1018972 or placebo once every 12 hours (q12h) for 14 consecutive days. Each subject participated in only 1 group during the study.
The doses were selected based upon the safety, tolerability, and PK data from the SAD part: • Group B1 multiple oral doses of an IR formulation of 150 mg IMB-1018972 (n=9) or matching placebo (n=3) twice daily (q12h) for 14 days; on Day 14 only a single morning dose was administered • Group B2: multiple oral doses of an IR formulation of 50 mg IMB-1018972 (n=9) or matching placebo (n=3) q12h for 14 days; on Day 14 only a single morning dose was administered
(§2) AEs were recorded from (first) admission until completion of the follow-up visit. Any clinically significant observations in results of clinical laboratory, 12-lead ECGs, vital signs, or physical examinations were recorded as AEs.
(§3) A treatment-emergent AE (TEAE) was defined as any event not present prior to (the first) administration of the study drug or any event already present that worsened in either severity or frequency following exposure to the study drug.
(§4) At several time points before and after drug administration, subjects were asked nonleading questions to determine the occurrence of AEs. Subjects were asked in general terms about any AEs at regular intervals during the study. In addition, all AEs reported spontaneously during the course of the study were recorded. Details included description of the event, date and time of onset, date and time of end, total duration, severity, relationship to study drug, intervention, seriousness, and outcome. All answers were interpreted by the Investigator and were recorded in the eCRF. All AEs were classified according to the Medical Dictionary for Regulatory Activities (MedDRA; Version 22.0) for AEs.
(§5) The severity of the AEs was rated as mild, moderate, or severe; the relationship between the AEs and the study drug was indicated as none, unlikely, possibly, likely, or definitely. Adverse events assessed as possibly, likely, or definitely were considered related to the study drug; AEs assessed as none or unlikely were considered not related to the study drug.
In the MAD part, a 12-lead ECG was recorded continuously by telemetry from 2 hours before to 12 hours after drug administration on Day 1, and from 2 hours before to 24 hours after drug administration on Day 14.

healthy subjects [3] = test: FIH study, single-dose MR part: safety and tolerability; format: in vivo, human; conditions: for ALT, Subject 505: normal range 0-68 IU/L
Method: The subjects received a single oral dose of 1 of 4 MR formulations of IMB-1018972 under fasted conditions (an overnight fast of at least 10 hours) on Days 1, 4, 7, and 10 in a fixed order that was the same for all subjects. The MR formulation of IMB-1018972 to be administered on Day 13 under fed conditions was 1 of the 4 MR formulations administered on Days 1, 4, 7, and 10 under fasted conditions. The formulation chosen for administration on Day 13 was the 200 mg 8-hour MR formulation as determined by the Sponsor based on the available safety, tolerability, and PK results of the 4 MR formulations.
as §2, §3, §4, §5
(§6) The following parameters were measured: • Clinical chemistry (serum quantitatively): total bilirubin, alkaline phosphatase, gamma glutamyl transferase, aspartate aminotransferase (AST), alanine aminotransferase (ALT), lactate dehydrogenase, creatinine, urea, total protein, glucose, inorganic phosphate, sodium, potassium, • calcium, and chloride • Hematology (blood quantitatively): leukocytes, erythrocytes, hemoglobin, hematocrit, thrombocytes, partial automated differentiation (lymphocytes, monocytes, eosinophils, basophils, and neutrophils), mean corpuscular volume, mean corpuscular hemoglobin, and mean corpuscular hemoglobin concentration • Coagulation (blood quantitatively): prothrombin time (reported in seconds and as international normalized ratio), activated partial thromboplastin time, and fibrinogen • Urinalysis (urine qualitatively): hemoglobin, urobilinogen, ketones, glucose, and protein • Serology: HBsAg, anti-HCV, and anti-HIV 1 and 2 • Drug and alcohol screen: opiates, methadone, cocaine, amphetamines (including ecstasy), cannabinoids, barbiturates, benzodiazepines, tricyclic antidepressants, and alcohol • Pregnancy test (females only): (3-human chorionic gonadotropin in serum

healthy subjects [4] = test: FIH study, multiple-dose MR part: safety and tolerability; format: in vivo, human
Method: as §2, §3, §4, §5

dog = test: 28-day dog study (nonclinical toxicology: NOAEL and exposure); conditions: in vivo
Method: Based on the nonclinical toxicology data, it was considered that subjects in this clinical study were not at unreasonable risk of adverse effects. […] For a 60-kg individual, the NOAEL dose would be 6480 mg. With a 10-fold safety factor applied, this would allow for a maximum recommended starting dose (MRSD) of 648 mg/day.7,8 The planned starting dose in the current Phase 1 study was 50 mg, equivalent to 0.83 mg/kg/day for a 60-kg subject. This starting dose is less than 10% of the MRSD determined from the dog NOAEL and less than 1% of the dog NOAEL
The relevant animal study was the 28-day dog study where the NOAEL for IMB-1018972 was 200 mg/kg/day.

[5] = tested on: patients with Type 2 Diabetes mellitus and obesity; test: Open label Phase 2 study IMB101-005 DICE: spontaneously reported renal and urinary findings; format: in vivo, human; conditions: 200 mg MR BID for 8 weeks (N=22)
Method: (§1) In the early Phase 1 study in healthy volunteers and early Phase 2 studies in patients, there were instances of increased urine volume and increased urinary frequency spontaneously reported. • In the first-in-man study, CIMB8972-101, healthy volunteers were dosed with single doses of IMB-1018972 at 50 mg or 200 mg of the modified release (MR) formulation. Two of 12 subjects [2/12] (16.7%) reported 5 events of pollakiuria at both doses. • In an open label Phase 2 study (IMB101-005 DICE) treating patients with Type 2 Diabetes mellitus and obesity for 8 weeks with 200 mg MR BID, two of 22 patients [2/22] (9.1%) spontaneously reported renal and urinary findings. One patient reported pollakiuria and one patient reported increased nocturnal urinary frequency. • In a blinded, randomized, controlled, Phase 2 study (IMB101-006 […]) treating patients with stable angina for 8 weeks with 200 mg MR BID, one of 22 patients [1/22] (4.5%) spontaneously reported renal and urinary findings. One patient reported polyuria.

[6] = tested on: patients with stable angina; test: Blinded, randomized, controlled Phase 2 study IMB101-006 […]: spontaneously reported renal and urinary findings; format: in vivo, human; conditions: 200 mg MR BID for 8 weeks, blinded (N=22)
Method: as §1

healthy subjects [7] = test: FIH study, whole study: safety and tolerability
Method: as §2, §3, §4, §5, §6
Systolic and diastolic blood pressure and pulse were recorded after the subject had been resting for at least 5 minutes in the supine position. These assessments were made using an automated device. Body temperature and respiratory rate were measured subsequently.
The ECG was recorded using an ECG machine equipped with computer-based interval measurements (with no/minimal disturbance by procedures). The following ECG parameters were recorded: heart rate, PR-interval, QRS-duration, QT-interval, QTcF-interval, and the interpretation of the ECG profile by the Investigator.
Safety and tolerability were assessed through AEs, clinical laboratory, vital signs, ECGs, continuous cardiac monitoring (telemetry), and physical examination findings, and any other parameter that was relevant for safety assessment.

[8] = MAD part, all IMB-1018972 doses (N=18)
[9] = 50 mg 4-hour MR formulation of IMB-1018972, fasted
[10] = 200 mg 4-hour MR formulation of IMB-1018972, fasted
[11] = single doses of 50 mg or 200 mg MR IMB-1018972 (N=12)
[12] = single-dose MR part, IMB-1018972 (N=12)
[13] = single-dose MR part, of 37 TEAEs

SMILES: COc1ccc(CN2CCN(CCOC(=O)c3cccnc3)CC2)c(OC)c1OC [IMB-1018972, 2-[4-[(2,3,4-trimethoxyphenyl)methyl]piperazin-1-yl]ethyl pyridine-3-carboxylate]
- IMB-1018972 in plasma [1]: could be measured in only few plasma samples
- TEAEs of flushing (healthy subjects [2]; 50 mg IMB-1018972 q12h): No TEAEs of flushing
- Number of TEAEs (healthy subjects [2]; 50 mg IMB-1018972 q12h fed): 21
- Subjects reporting TEAEs (healthy subjects [2]; 50 mg IMB-1018972 q12h fed): 77.8%
- Number of TEAEs of flushing (incidental, mild) (healthy subjects [2]; 150 mg IMB-1018972 q12h): 7
- Subjects with TEAEs of flushing (healthy subjects [2]; 150 mg IMB-1018972 q12h): 6 subjects
- Number of TEAEs (healthy subjects [2]; 150 mg IMB-1018972 q12h fed): 14
- Subjects reporting TEAEs (healthy subjects [2]; 150 mg IMB-1018972 q12h fed): 77.8%
- Tolerability (healthy subjects [2]; 14-day oral q12h 50 mg and 150 mg IMB-1018972, fed): well tolerated
- Severity of all TEAEs (healthy subjects [2]; MAD part): mild
- Number of TEAEs considered not related to the study drug (healthy subjects [2]; MAD part, IMB-1018972 (N=18)): 28
- Number of TEAEs, SOC general disorders and administration site conditions (healthy subjects [2]; MAD part, IMB-1018972 (N=18)): 7
- Number of TEAEs, SOC musculoskeletal and connective tissue disorders (healthy subjects [2]; MAD part, IMB-1018972 (N=18)): 7
- Number of TEAEs, SOC vascular disorders (flushing) (healthy subjects [2]; MAD part, IMB-1018972 (N=18)): 7
- Subjects reporting TEAEs considered not related to the study drug (healthy subjects [2]; MAD part, IMB-1018972 (N=18)): 61.1%
- Subjects reporting TEAEs considered related to the study drug (healthy subjects [2]; MAD part, IMB-1018972 (N=18)): 33.3%
- Subjects reporting TEAEs, SOC general disorders and administration site conditions (healthy subjects [2]; MAD part, IMB-1018972 (N=18)): 27.8%
- Subjects reporting TEAEs, SOC musculoskeletal and connective tissue disorders (healthy subjects [2]; MAD part, IMB-1018972 (N=18)): 27.8%
- Subjects reporting TEAEs, SOC vascular disorders (flushing) (healthy subjects [2]; MAD part, IMB-1018972 (N=18)): 33.3%
- Number of TEAEs considered related to the study drug (healthy subjects [2]; MAD part, IMB-1018972 (N=18), all flushing at 150 mg q12h): 7
- Number of TEAEs (healthy subjects [2]; [8]): 35
- Subjects reporting TEAEs (healthy subjects [2]; [8]): 77.8%
- Number of TEAEs (healthy subjects [3]; [9]): 9
- Subjects reporting TEAEs (healthy subjects [3]; [9]): 50%
- Tolerability (healthy subjects [3]; 50 mg and 200 mg MR formulations (4-hour, 8-hour) fasted, 200 mg 8-hour MR fed, except 1 subject with elevated ALT): well tolerated
- Number of TEAEs (healthy subjects [3]; [10]): 11
- Subjects reporting TEAEs (healthy subjects [3]; [10]): 66.7%
- ALT, Subject 505 (healthy subjects [3]; Day 2, MR doses on Days 1, 4, 7, 10): 31 IU/L
- ALT, Subject 505 (healthy subjects [3]; Day 5): 72 IU/L
- ALT, Subject 505 (healthy subjects [3]; Day 8): 97 IU/L
- ALT, Subject 505 (healthy subjects [3]; Day 11 (highest)): 149 IU/L
- ALT, Subject 505 (healthy subjects [3]; Day 14): 102 IU/L
- ALT, Subject 505 (healthy subjects [3]; Day 16): 84 IU/L
- ALT, Subject 505 (healthy subjects [3]; follow-up Day 24): 42 IU/L
- Number of drug-related TEAEs (events) of pollakiuria (renal and urinary disorders) (healthy subjects [3]; [11]): 5
- Subjects reporting pollakiuria (healthy subjects [3]; [11]): 16.7%
- Dose or dissolution time dependency of number and incidence of TEAEs (healthy subjects [3]; single-dose MR part): no apparent dose or dissolution time dependency
- Moderate TEAE of ALT increased (1 subject, withdrawn): relationship to the study drug (Investigator) (healthy subjects [3]; single-dose MR part): possibly related
- Number of drug-related TEAEs of ALT increased (healthy subjects [3]; single-dose MR part): 1
- Number of drug-related TEAEs of headache (healthy subjects [3]; single-dose MR part): 1
- Severe TEAEs (healthy subjects [3]; single-dose MR part): No severe TEAEs
- TEAEs of flushing (healthy subjects [3]; single-dose MR part): No TEAEs of flushing
- Number of TEAEs considered not related to the study drug (healthy subjects [3]; single-dose MR part (N=12)): 30
- Number of TEAEs considered related to the study drug (healthy subjects [3]; single-dose MR part (N=12)): 7
- Number of TEAEs, SOC gastrointestinal disorders (healthy subjects [3]; single-dose MR part (N=12)): 5
- Number of TEAEs, SOC general disorders and administration site conditions (healthy subjects [3]; single-dose MR part (N=12)): 11
- Number of TEAEs, SOC nervous system disorders (healthy subjects [3]; single-dose MR part (N=12)): 8
- Subjects reporting TEAEs considered not related to the study drug (healthy subjects [3]; single-dose MR part (N=12)): 83.3%
- Subjects reporting TEAEs considered related to the study drug (healthy subjects [3]; single-dose MR part (N=12)): 33.3%
- Subjects reporting TEAEs, SOC gastrointestinal disorders (healthy subjects [3]; single-dose MR part (N=12)): 33.3%
- Subjects reporting TEAEs, SOC general disorders and administration site conditions (healthy subjects [3]; single-dose MR part (N=12)): 58.3%
- Subjects reporting TEAEs, SOC nervous system disorders (healthy subjects [3]; single-dose MR part (N=12)): 58.3%
- Difference between fasted and fed administration for number and incidence of TEAEs (healthy subjects [3]; single-dose MR part, 200 mg 8-hour MR): no clear difference
- Number of TEAEs (healthy subjects [3]; [12]): 37
- Subjects reporting TEAEs (healthy subjects [3]; [12]): 83.3%
- Number of TEAEs of mild severity (healthy subjects [3]; [13]): Thirty-six
- Number of TEAEs of moderate severity (healthy subjects [3]; [13]): 1
- AST levels, Subject 505 (healthy subjects [3]; throughout the entire period): within normal range
- Severity of flushing (2 subjects) (healthy subjects [4]; 200 mg 8-hour MR q12h, fed): mild
- Severity of all TEAEs (healthy subjects [4]; multiple-dose MR part): mild
- Number of TEAEs (healthy subjects [4]; multiple-dose MR part (N=12)): 40
- Number of TEAEs considered not related to the study drug (healthy subjects [4]; multiple-dose MR part (N=12)): 30
- Number of TEAEs considered related to the study drug (healthy subjects [4]; multiple-dose MR part (N=12)): 10
- Number of TEAEs, SOC gastrointestinal disorders (healthy subjects [4]; multiple-dose MR part (N=12)): 9
- Number of TEAEs, SOC general disorders and administration site conditions (healthy subjects [4]; multiple-dose MR part (N=12)): 4
- Number of TEAEs, SOC musculoskeletal and connective tissue disorders (healthy subjects [4]; multiple-dose MR part (N=12)): 4
- Number of TEAEs, SOC nervous system disorders (healthy subjects [4]; multiple-dose MR part (N=12)): 9
- Number of TEAEs, SOC renal and urinary disorders (pollakiuria) (healthy subjects [4]; multiple-dose MR part (N=12)): 4
- Number of drug-related TEAEs of flushing (healthy subjects [4]; multiple-dose MR part (N=12)): 2
- Number of drug-related TEAEs of pollakiuria (healthy subjects [4]; multiple-dose MR part (N=12)): 4
- Number of drug-related TEAEs, nervous system disorders (healthy subjects [4]; multiple-dose MR part (N=12)): 2
- Subjects reporting TEAEs (healthy subjects [4]; multiple-dose MR part (N=12)): 100%
- Subjects reporting TEAEs considered not related to the study drug (healthy subjects [4]; multiple-dose MR part (N=12)): 75%
- Subjects reporting TEAEs considered related to the study drug (healthy subjects [4]; multiple-dose MR part (N=12)): 58.3%
- Subjects reporting TEAEs, SOC gastrointestinal disorders (healthy subjects [4]; multiple-dose MR part (N=12)): 41.7%
- Subjects reporting TEAEs, SOC general disorders and administration site conditions (healthy subjects [4]; multiple-dose MR part (N=12)): 33.3%
- Subjects reporting TEAEs, SOC musculoskeletal and connective tissue disorders (healthy subjects [4]; multiple-dose MR part (N=12)): 33.3%
- Subjects reporting TEAEs, SOC nervous system disorders (healthy subjects [4]; multiple-dose MR part (N=12)): 58.3%
- Subjects reporting TEAEs, SOC renal and urinary disorders (pollakiuria) (healthy subjects [4]; multiple-dose MR part (N=12)): 33.3%
- Subjects reporting drug-related TEAEs of flushing (healthy subjects [4]; multiple-dose MR part (N=12)): 16.7%
- Subjects reporting drug-related TEAEs of pollakiuria (healthy subjects [4]; multiple-dose MR part (N=12)): 33.3%
- Subjects reporting drug-related TEAEs, nervous system disorders (healthy subjects [4]; multiple-dose MR part (N=12)): 16.7%
- NOAEL dose for a 60-kg individual (HED) (dog): 6480 mg
- Maximum recommended starting dose (MRSD), 10-fold safety factor (dog; 28 days): 648 mg/day
- Patients reporting increased nocturnal urinary frequency [5]: one
- Patients reporting pollakiuria [5]: One
- Patients spontaneously reporting renal and urinary findings [5]: 9.1%
- Patients reporting polyuria [6]: One
- Patients spontaneously reporting renal and urinary findings [6]: 4.5%
- Subjects withdrawn from the study due to adverse events (healthy subjects [7]; 1 SAE influenza like illness, 1 TEAE ALT increased): Two
- Hemodynamic changes and QTc-interval (healthy subjects [7]; IR or MR formulations): no findings of hemodynamic changes, nor changes in the QTc-interval
- Dose dependency of number and incidence of TEAEs (healthy subjects [7]; overall): no clear dose dependency
- Overall tolerability (healthy subjects [7]; single and multiple oral doses, IR and MR formulations): generally well tolerated
- Clinical laboratory, vital signs, 12-lead ECG, continuous cardiac monitoring (telemetry), physical examination (healthy subjects [7]; whole study): no findings of clinical relevance
- Deaths (healthy subjects [7]; whole study): no deaths
- Severe TEAEs (healthy subjects [7]; whole study): no severe TEAEs
- Number of TEAEs of moderate severity (healthy subjects [7]; whole study, all treatments): 12
- Total number of TEAEs (healthy subjects [7]; whole study, all treatments): 181
